In data set [1] the test system is HepG2. The data set is described as follows: uptake of IR783 in cell lines: liver. It counts as cell-based, human. An excerpt:
(§1) The uptake of IR783 was studied and confirmed in a variety of human cell lines as shown below: […]

The subject of data set [2] is HeLa. Put plainly: uptake of IR783 in cell lines: cervical. It counts as cell-based, human.
Text: as §1

The test system of data set [3] is MCF-7. The data set is described as follows: uptake of IR783 in cell lines: breast. It counts as cell-based, human.
Text: as §1

Data set [4] relates to RCC. Put plainly: uptake of IR783 in cell lines: kidney. It counts as cell-based, human.
Text: as §1

The subject of data set [5] is BMC. The data set is described as follows: uptake of IR783 in cell lines: bone marrow stroma. It counts as cell-based, human.
Text: as §1

For data set [6], the system named is subcutaneous ARCaPM tumor, intratibial C4-2 tumor. The data set is described as follows: IR783 imaging of human prostate cancer xenografts in nude mice (FIG. 15). It counts as in vivo, mouse. As to the method: The mice were injected i.p with IR783 at 0.2 μg/kg. Imaging was performed 24 hours later with the Kodak multimodal-imaging system. Histopathological analysis (H/E) confirmed the presence of tumors. […] Histopathology confirmed the necrotic status of the tumors.
(Xenograft models place foreign cells or tissue in a host animal.)

Data set [7] relates to RT-4, T24, 253J, TCC. The data set is described as follows: uptake of IR783 in cell lines: bladder. It counts as cell-based, human.
Text: as §1

The subject of data set [8] is P69. Put plainly: uptake of IR783 in cell lines: human prostate epithelia. It counts as cell-based.
Text: as §1

The test system of data set [9] is orthotopic prostate ARCaPM tumor. Put plainly: NIR imaging to assess pharmacokinetics of IR783 in vivo (FIG. 16A, 19). Also on record: species or system mouse.
Experimental: NIR imaging studies were performed to assess pharmacokinetics of the IR783 in vivo. […] This mouse was injected i.p with 0.2 μg/kg IR783 at 0 hrs.
The test system of data set [10] is H358. Put plainly: uptake of IR783 in cell lines: lung. It counts as cell-based, human.
Text: as §1

For data set [11], the system named is HaCaT. The data set is described as follows: uptake of IR783 in cell lines: skin. It counts as cell-based, human.
Text: as §1

Regarding `CC1(C)C(=CC=C2CCCC(C=CC3=[N+](CCCCS(=O)(=O)[O-])c4ccccc4C3(C)C)=C2Cl)N(CCCCS(=O)(=O)[O-])c2ccccc21.[Na+]` [IR783], the Uptake result in data set [1] is reported as “Strong”; in data set [2], “Strong”; in data set [3], “Strong”; in data set [4], “Strong”; in data set [5], “Very low”; in data set [7] it was “Strong”. In addition, the values for the Uptake result in [8], in [10] and in [11] were “Very low”, “Strong” and “Very low”, respectively. Further, in data set [6] (fluorescence imaging of all organs, data not shown), the “dye in normal organs removed from hosts” value is given as “lack of uptake of the dye in normal organs”. In data set [6] (mouse, in vivo), the “dye in metabolically active C4-2 tumors in mouse tibia” value is recorded as “retained the dye”. Also, the “dye retention in necrotic tumors on the contralateral side” value in data set [6] (mouse, in vivo) was “did not”. The “smallest tumor size detected” value in [6] (orthotopic or bone metastatic lesions, data not shown) is listed as roughly 2 mm^3. In addition, the “uptake by xenografts and metastatic bone lesions” value in data set [6] (subcutaneous and intra-tibial sites of nude mice, 0.2 μg/kg i.p, 24 hours) is on record as “preferentially taken up”. The non-specific imaging result in data set [9] (0.2 μg/kg i.p) is reported as “non-specific imaging can be seen in the first 24 hrs, predominantly in the liver”. In addition, the retention in tumors entry in data set [9] (0.2 μg/kg i.p, 3.4 cm^3 orthotopic ARCaPM tumor) was “more than 4 days”. Further, in data set [9] (0.2 μg/kg i.v or i.p), the initial distribution result is “initially accumulated in liver, lung and spleen”. In addition, the “time at which dye appeared in tumor” value in [9] (0.2 μg/kg i.v or i.p) was determined as 24 h. The “time after which tumors and metastases can be readily identified” value in data set [9] (ARCaP orthotopic tumors, FIG. 19) fell in the range of 24 to 48 h. Also, in data set [9] (data not shown), the “signal in mice without tumors” value is “background activity”. Also, the “accumulation in gall bladder or urinary bladder” value in data set [9] (mouse, in vivo) is “not detected”. Further, the “time of accumulation in tumor and metastases” value in [9] (orthotopic xenograft ARCaPm tumor, FIG. 16 legend) fell in the range of 24 to 96 h.

The values above are taken from patent US11738095B2, “Cyanine-containing compounds for cancer imaging and treatment” (Emory University, priority 2007, dated 2023).
